Test results taken from US20150030615A1, “BIOMARKERS FOR CANCER STEM CELLS AND RELATED METHODS OF USE” (VERASTEM, INC., priority 2012, published 2015).
Entries after “also recorded” stand apart in the source; their conditions may differ.

Test system: tumorspheres of SUM159 cells
Assay: gene expression in sequentially passaged tumorspheres treated with chemotherapeutic agents
Assay type: cell-based, human
Conditions: paclitaxel-treated SUM159 tumorspheres; 11 CSC-associated genes; percentage change normalized to primary SUM159 tumorspheres (FIG. 14)

For `CC(=O)O[C@H]1C(=O)[C@@]2(C)[C@H]([C@H](OC(=O)c3ccccc3)[C@]3(O)C[C@H](OC(=O)[C@H](O)[C@@H](NC(=O)c4ccccc4)c4ccccc4)C(C)=C1C3(C)C)[C@]1(OC(C)=O)CO[C@@H]1C[C@@H]2O` [paclitaxel], the “expression of upregulated cancer stem cell associated genes” value was “enhancement of the upregulation; also recorded: enhanced further”.
